Like-named read-outs stand apart in the source and are kept apart here.
How the values were obtained:
[1] = Acute intravenous toxicity of GdNa2 DTPA in mice (Example 7); assay type: in vivo, Swiss CF-1 albino mice
Excerpt: The acute intravenous toxicity of disodium (diethylenetriaminepentaacetato)gadolinium (III) (composition C of Example 1) was studied.
A total of 16 Swiss CF-1 albino mice (8 male, 22.0-25.6 g; 8 female, 18.2-24.1 g) were used. Picric acid markings were used for individual identification.
The protocol of Example 4 was used. Groups of 2-4 mice, with sexes equally represented, received single intravenous doses of the test substance according to the following schedule: […]

[2] = Abdominal NMR imaging in rabbits (Example 11); assay type: in vivo
Protocol: Two rabbits were anesthetized and abdominal NMR images were obtained in the General Electric NMR scanner. Rabbits then received intravenous doses of 0.3 ml/kg (0.5 mmol Gd(III)/kg) of the preparation of composition D of Example 1 (GdNa2 DTPA) and additional abdominal NMR images were made over a period of two hours after dosing.

[3] = for Blood T1: before contrast 510
[4] = 0.34 mmol Gd(III)/kg, 10 minutes

O=C([O-])CN(CCN(CC(=O)[O-])CC(=O)[O-])CCN(CC(=O)[O-])CC(=O)[O-].[Gd+3].[Na+].[Na+] [GdNa2 DTPA, disodium (diethylenetriaminepentaacetato)gadolinium (III)]
dose up to which no deaths were observed ([1]; intravenous, mice): 12000 mg/kg
acute intravenous toxicity profile (in words) ([1]; mouse): relatively safe mouse acute intravenous toxicity profile
body weight (in words) ([1]; mouse, in vivo): slight reduction in body weight
respiratory distress ([1]; mouse, in vivo): respiratory distress was observed
time until all mice appeared normal ([1]; mouse, in vivo): ≤ 6 h
renal medulla and renal cortex proton images ([2]; 0.3 ml/kg (0.5 mmol Gd(III)/kg) i.v.): Marked alteration
time of peak effects on renal images ([2]; 0.3 ml/kg i.v.): ≤ 15 min
Mean T1, Blood (0.51 mmol/kg, 5 minutes): 292 ms
Mean T1, Blood (0.51 mmol/kg, 10 minutes): 321 ms
Mean T1, Blood (0.51 mmol/kg, 15 minutes): 337 ms
Mean tissue T1, Fat (0.51 mmol/kg, 15 minutes): 61 ms
Mean tissue T1, Heart (0.51 mmol/kg, 15 minutes): 267 ms
Mean tissue T1, Large Intestine (0.51 mmol/kg, 15 minutes): 228 ms
Mean tissue T1, Liver (0.51 mmol/kg, 15 minutes): 172 ms
Mean tissue T1, Lung (0.51 mmol/kg, 15 minutes): 303 ms
Mean tissue T1, Pancreas (0.51 mmol/kg, 15 minutes): 172 ms
Mean tissue T1, Renal Cortex (0.51 mmol/kg, 15 minutes): 137 ms
Mean tissue T1, Renal Medulla (0.51 mmol/kg, 15 minutes): 130 ms
Mean tissue T1, Skel. Muscle (0.51 mmol/kg, 15 minutes): 217 ms
Mean tissue T1, Small Intestine (0.51 mmol/kg, 15 minutes): 224 ms
Mean tissue T1, Spleen (0.51 mmol/kg, 15 minutes): 257 ms
Mean tissue T1, Stomach (0.51 mmol/kg, 15 minutes): 219 ms
changes in T1 relative to changes in T2 (0.1, 0.3 and 1.0 ml/kg i.v.): generally greater than changes in T2 values
tissue and blood T1 and T2 values (in words) (0.1, 0.3 and 1.0 ml/kg i.v.): Dose-related changes in tissue and blood T1 and T2 values
tissues with the most profound effects on T1 (0.1, 0.3 and 1.0 ml/kg i.v.): blood and kidneys (both cortex and medulla) with large intestine, pancreas and stomach the next most sensitive
Cardiovascular effects (rabbit, in vivo, iv): minimal
T1, infarcted regions of heart muscle ([3]; 0.17 mmol Gd(III)/kg, 10 minutes): 290 ms
T1, normally perfused myocardial tissue ([3]; 0.17 mmol Gd(III)/kg, 10 minutes, untreated 330): 180 ms
average T1, infarcted tissue ([3]; 0.34 mmol Gd(III)/kg): 230 ms
Blood T1 ([3]; 0.34 mmol Gd(III)/kg, 5 minutes): 50 ms
images of excised hearts, normal versus infarcted tissue [3, 4]: marked differences between normal and infarcted tissues
Blood T1 [3, 4]: 100 ms
average T1, normally perfused myocardium ([3]; 0.34 mmol Gd(III)/kg, untreated 330): 135 ms

— patent US5407660A, “Diagnostic liposomal compositions for enhancing NMR imaging” (Mallinckrodt Medical, Inc., priority 1993, dated 1995)
